For this test, the system named is C57BL/6 mice, intracerebral ependymoblastoma, median survival T/C. Briefly: NCI In Vivo Anticancer Drug Screen. Data for tumor model Ependymoblastoma (intracerebral) in C57BL/6 mice. To be noted: endpoint: median survival time, higher = longer survival. As for the experimental part:
The antitumor activity of compounds was measured in mice bearing transplantable tumors. Survival or tumor size were measured and the results are expressed as the measurement made in the treated group (T) divided by the measurement made in the vehicle treated control group (C). The tumor model used in this assay is Ependymoblastoma (intracerebral) in C57BL/6 mice

[1] abbreviates: dose: 64.0 mg/kg/injection, schedule: Q01DX005 (ip), vehicle: saline with Tween-80.
Where [2] appears, read: dose: 128.0 mg/kg/injection, schedule: Q01DX005 (ip), vehicle: saline with Tween-80.
Setting [3] is: dose: 256.0 mg/kg/injection, schedule: Q01DX005 (ip), vehicle: saline with Tween-80.
Setting [4] is: dose: 512.0 mg/kg/injection, schedule: Q01DX005 (ip), vehicle: saline with Tween-80.
The mark [5] stands for this setting: dose: 1024.0 mg/kg/injection, schedule: Q01DX005 (ip), vehicle: saline with Tween-80.
Where [6] appears, read: dose: 0.13 mg/kg/injection, schedule: Q01DX005 (ip), vehicle: saline.
[7] abbreviates: dose: 100.0 mg/kg/injection, schedule: Q01DX005 (ip), vehicle: saline.
Setting [8] is: dose: 200.0 mg/kg/injection, schedule: Q01DX005 (ip), vehicle: saline.
The mark [9] stands for this setting: dose: 0.12 mg/kg/injection, schedule: Q01DX005 (ip), vehicle: Klucel (hydroxypropylcellulose) (HPC).
[10] abbreviates: dose: 0.25 mg/kg/injection, schedule: Q01DX005 (ip), vehicle: Klucel (hydroxypropylcellulose) (HPC).
Where [11] appears, read: dose: 2.0 mg/kg/injection, schedule: Q01DX001 (ip), vehicle: Klucel (hydroxypropylcellulose) (HPC).
Where [12] appears, read: dose: 4.0 mg/kg/injection, schedule: Q01DX001 (ip), vehicle: Klucel (hydroxypropylcellulose) (HPC).
The mark [13] stands for this setting: dose: 8.0 mg/kg/injection, schedule: Q01DX001 (ip), vehicle: Klucel (hydroxypropylcellulose) (HPC).

“And” between values parts separate entries of the source, which are not always exact repeats. Equal entries are not always repeated. Toxic doses and inconclusive results are not listed.

For eleven molecules, T/C results are on record in PubChem BioAssay AID222 (DTP/NCI, 2004).

For `O=c1cc[nH]c(=O)[nH]1`, the T/C reads like this: (dose: 32.0 mg/kg/injection, schedule: Q01DX005 (ip), vehicle: Klucel (hydroxypropylcellulose) (HPC)) 98 % of control; (dose: 64.0 mg/kg/injection, schedule: Q01DX005 (ip), vehicle: Klucel (hydroxypropylcellulose) (HPC)) 98 % of control and 105 % of control; under setting [1], 95 % of control; (dose: 128.0 mg/kg/injection, schedule: Q01DX005 (ip), vehicle: Klucel (hydroxypropylcellulose) (HPC)) 100 % of control and 108 % of control; under setting [2], 98 % of control; (dose: 256.0 mg/kg/injection, schedule: Q01DX005 (ip), vehicle: Klucel (hydroxypropylcellulose) (HPC)) 98 % of control and 110 % of control. For the same molecule, the T/C by setting is: under setting [3], 94 % of control; (dose: 512.0 mg/kg/injection, schedule: Q01DX005 (ip), vehicle: Klucel (hydroxypropylcellulose) (HPC)) 96 % of control and 104 % of control; under setting [4], 104 % of control; (dose: 1024.0 mg/kg/injection, schedule: Q01DX005 (ip), vehicle: Klucel (hydroxypropylcellulose) (HPC)) 109 % of control; under setting [5], 100 % of control.

Regarding `COc1ccc(CC2C(=O)NC(C)C(=O)N(C)C3C(=O)N(C)C(Cc4ccc(O)c(c4)Oc4ccc(cc4)C3O)C(=O)NC(C)C(=O)NC(C)C(=O)N2C)cc1` (centres undefined), the T/C by setting is: under setting [6], 103 % of control; (dose: 0.25 mg/kg/injection, schedule: Q01DX005 (ip), vehicle: saline) 98 % of control; (dose: 0.5 mg/kg/injection, schedule: Q01DX005 (ip), vehicle: saline) 98 % of control; (dose: 1.0 mg/kg/injection, schedule: Q01DX005 (ip), vehicle: saline) 95 % of control.

Turning to `N=c1ccn2c(n1)OC1C(O)C(CO)OC12` (centres undefined), the T/C reads like this: (dose: 100.0 mg/kg/injection, schedule: Q01DX001 (ip), vehicle: saline) 118 % of control; under setting [7], 106 % of control and 112 % of control; (dose: 200.0 mg/kg/injection, schedule: Q01DX001 (ip), vehicle: saline) 123 % of control; under setting [8], 120 % of control and 122 % of control; (dose: 400.0 mg/kg/injection, schedule: Q01DX001 (ip), vehicle: saline) 111 % of control; (dose: 400.0 mg/kg/injection, schedule: Q01DX005 (ip), vehicle: saline) 122 % of control. Moreover, the T/C (dose: 800.0 mg/kg/injection, schedule: Q01DX001 (ip), vehicle: saline) was 116 % of control.

As to `F`, the T/C (dose: 16.0 mg/kg/injection, schedule: Q01DX005 (ip), vehicle: saline) is 98 % of control and the T/C (dose: 32.0 mg/kg/injection, schedule: Q01DX005 (ip), vehicle: saline) was 96 % of control.

As to `CCC(=O)NC1=C(N2CC2C)C(=O)C(NC(=O)CC)=C(N2CC2C)C1=O` (centres undefined), the T/C (dose: 6.25 mg/kg/injection, schedule: Q01DX009 (ip), vehicle: Klucel (hydroxypropylcellulose) (HPC)) was 105 % of control.

On to `O=C(O)CCCc1ccc(N(CCCl)CCCl)cc1`, for which the T/C under setting [9] is 115 % of control; the T/C under setting [10] was 110 % of control; the T/C (dose: 1.0 mg/kg/injection, schedule: Q01DX005 (ip), vehicle: Klucel (hydroxypropylcellulose) (HPC)) is 100 % of control; the T/C under setting [11] is 100 % of control; the T/C (dose: 2.0 mg/kg/injection, schedule: Q01DX005 (ip), vehicle: Klucel (hydroxypropylcellulose) (HPC)) is 100 % of control and 111 % of control and 120 % of control; the T/C under setting [12] was 106 % of control. Further, the T/C (dose: 4.0 mg/kg/injection, schedule: Q01DX005 (ip), vehicle: Klucel (hydroxypropylcellulose) (HPC)) was 107 % of control and 109 % of control and 122 % of control; the T/C under setting [13] was 105 % of control; the T/C (dose: 8.0 mg/kg/injection, schedule: Q01DX005 (ip), vehicle: Klucel (hydroxypropylcellulose) (HPC)) was 109 % of control and 110 % of control and 122 % of control; the T/C (dose: 16.0 mg/kg/injection, schedule: Q01DX005 (ip), vehicle: Klucel (hydroxypropylcellulose) (HPC)) was 96 % of control and 122 % of control.

Take `O=CC(NC(=O)N(CCCl)N=O)C(O)C(O)C(O)CO` (centres undefined): the T/C is 95 % of control under setting [9]; 96 % of control and 104 % of control (dose: 0.12 mg/kg/injection, schedule: Q01DX005 (ip), vehicle: saline); 88 % of control (dose: 0.13 mg/kg/injection, schedule: Q01DX005 (ip), vehicle: Klucel (hydroxypropylcellulose) (HPC)); 89 % of control and 105 % of control under setting [6]; 96 % of control and 123 % of control under setting [10]; 97 % of control and 99 % of control (dose: 0.5 mg/kg/injection, schedule: Q01DX005 (ip), vehicle: Klucel (hydroxypropylcellulose) (HPC)). Besides, the T/C was 96 % of control (dose: 1.0 mg/kg/injection, schedule: Q01DX001 (ip), vehicle: Klucel (hydroxypropylcellulose) (HPC)); 100 % of control under setting [11]; 97 % of control under setting [12]; 96 % of control under setting [13]; 114 % of control (dose: 16.0 mg/kg/injection, schedule: Q01DX001 (ip), vehicle: Klucel (hydroxypropylcellulose) (HPC)); 108 % of control (dose: 32.0 mg/kg/injection, schedule: Q01DX005 (oral), vehicle: saline). Further, the T/C (dose: 64.0 mg/kg/injection, schedule: Q01DX001 (oral), vehicle: saline) is 89 % of control; the T/C (dose: 64.0 mg/kg/injection, schedule: Q01DX005 (oral), vehicle: saline) is 89 % of control; the T/C (dose: 128.0 mg/kg/injection, schedule: Q01DX001 (oral), vehicle: saline) was 98 % of control; the T/C (dose: 256.0 mg/kg/injection, schedule: Q01DX001 (oral), vehicle: saline) is 99 % of control; the T/C (dose: 512.0 mg/kg/injection, schedule: Q01DX001 (oral), vehicle: saline) was 95 % of control; the T/C (dose: 1024.0 mg/kg/injection, schedule: Q01DX001 (oral), vehicle: saline) is 99 % of control.

Regarding `Cc1cn(C2CC(O)C(CO)O2)c(=O)[nH]c1=O` (centres undefined), the T/C runs as follows: under setting [1], 92 % of control and 97 % of control; (dose: 100.0 mg/kg/injection, schedule: Q01DX005 (ip), vehicle: saline with Tween-80) 91 % of control; under setting [2], 90 % of control and 105 % of control; (dose: 200.0 mg/kg/injection, schedule: Q01DX005 (ip), vehicle: saline with Tween-80) 98 % of control; under setting [3], 95 % of control and 87 % of control; (dose: 400.0 mg/kg/injection, schedule: Q01DX005 (ip), vehicle: saline with Tween-80) 96 % of control. Also, the T/C under setting [4] is 100 % of control; the T/C (dose: 800.0 mg/kg/injection, schedule: Q01DX005 (ip), vehicle: saline with Tween-80) is 98 % of control; the T/C under setting [5] is 100 % of control and 101 % of control; the T/C (dose: 1600.0 mg/kg/injection, schedule: Q01DX005 (ip), vehicle: saline with Tween-80) was 98 % of control.

As for `Nc1ncnc2c1ncn2C1OC(COP(=O)(O)O)C(O)C1O` (centres undefined), the T/C was 104 % of control under setting [7]; 100 % of control under setting [8]; 119 % of control (dose: 800.0 mg/kg/injection, schedule: Q01DX005 (ip), vehicle: saline).

Take `CO[C@H]1C[C@@H]2CC[C@@H](C)[C@@](O)(O2)C(=O)C(=O)N2CCCC[C@H]2C(=O)O[C@H]([C@H](C)C[C@@H]2CC[C@@H](O)[C@H](OC)C2)CC(=O)[C@H](C)C=C(C)[C@@H](O)[C@@H](OC)C(=O)[C@H](C)C[C@H](C)/C=C/C=C/C=C1C`: the T/C was 111 % of control (dose: 3.12 mg/kg/injection, schedule: Q01DX009 (ip), vehicle: saline with Tween-80); 120 % of control (dose: 6.25 mg/kg/injection, schedule: Q01DX009 (ip), vehicle: saline with Tween-80); 157 % of control (dose: 100.0 mg/kg/injection, schedule: Q01DX009 (ip), vehicle: saline with Tween-80); 92 % of control (dose: 200.0 mg/kg/injection, schedule: Q01DX009 (ip), vehicle: saline with Tween-80).

Turning to `NC(=S)N/N=C/c1ccc(O)cn1`, the T/C is, setting by setting: (dose: 12.0 mg/kg/injection, schedule: Q01DX005 (ip), vehicle: saline) 108 % of control; (dose: 24.0 mg/kg/injection, schedule: Q01DX005 (ip), vehicle: saline) 94 % of control; (dose: 48.0 mg/kg/injection, schedule: Q01DX005 (ip), vehicle: saline) 101 % of control; (dose: 96.0 mg/kg/injection, schedule: Q01DX005 (ip), vehicle: saline) 104 % of control.
